Tests used:
[1] = tested on: DU145-PSMA+ prostate cancer cells (DU145 cells transfected to express PSMA receptor); experiment: Radiotracer uptake in DU145-PSMA+ prostate cancer cells; assay type: cell-based; details: for cellular localization of radioactivity in DU145-PSMA+ cells over time: 15, 30, 60 and 120 min, surface-bound vs internalized fraction; for uptake in DU145-PSMA+ cells: 100 kBq radiotracer, 1 h incubation, percentage added radioactivity, mean ± SD, n = 3–4 biologic repeats in triplicate; for uptake in DU145-PSMA+ cells / uptake in DU145-PSMA+ cells with PMPA block: 37°C; for uptake in DU145-PSMA+ cells with PMPA block: coincubated with PSMA inhibitor PMPA, 1 h
Experimental: (§1) Solutions containing radiotracer (100 kBq in 8–12 μL of phosphate-buffered saline, >95% radiochemical purity) were added to DU145-PSMA+ or LNCaP prostate cancer cells ([22]), and the cells were incubated at 37°C for 1 h. Nonspecific uptake was determined using non–PSMA-expressing cells (DU145, PC3) or by blocking PSMA-expressing cells (DU145-PSMA+, LNCaP) with 2-phosphonomethyl pentanedioic acid (PMPA). After incubation, the cells were washed and samples collected for radioactivity counting. Uptake and localization of ^99mTc radiotracers were measured over time (15, 30, 60, and 120 min) in DU145-PSMA+ or LNCaP cells (supplemental materials).
(§2) To assess the specificity of the new radiotracers for PSMA, [^99mTc]Tc-DP1-PSMAt and [^99mTc]Tc-DP2-PSMAt (100 kBq) were each incubated with DU145-PSMA+ prostate cancer cells (DU145 cells transfected to express PSMA receptor) ([22]). After 1 h of incubation, uptake of each radiotracer was quantified. […] In LNCaP cells, uptake of [^99mTc]Tc-DP1-PSMAt and [^99mTc]Tc-DP2-PSMAt measured 3.7 ± 1.2 %AR and 3.0 ± 0.8 %AR, respectively, whereas uptake of both radiotracers in PC3 cells measured less than 0.3 %AR.
(§3) FIGURE 2. (A) Uptake of radiotracers in PSMA-positive and PSMA-negative prostate cancer cells. (B) Time course uptake and localization of ^99mTc radiotracers in DU145-PSMA cells and LNCaP cells. Data are presented as mean ± SD; n = 3–4 biologic repeats performed in triplicate.

[2] = tested on: parental DU145 cells that do not express PSMA; experiment: Radiotracer uptake in parental DU145 cells (non-PSMA-expressing); assay type: cell-based; details: 100 kBq, 1 h, 37°C
Experimental: as §1, §2, §3

[3] = tested on: DU145-PSMA+ xenograft tumors; experiment: Ex vivo biodistribution in SCID/beige mice bearing DU145-PSMA+ xenograft tumors; details: 2 h after injection; for effect of PMPA coadministration on kidney retention (in words): SCID/beige mice bearing DU145-PSMA+ tumors; for mean difference in spleen retention, radiotracer only vs with PMPA / mean difference in tumor uptake, radiotracer only vs with PMPA: SCID/beige mice; for mean difference in tumor uptake, radiotracer only vs with PMPA: DU145-PSMA+ tumors
Experimental: (§4) All animal experiments were ethically reviewed by an Animal Welfare and Ethical Review Board at either King’s College London or Barts Cancer Institute and were performed in accordance with the Animals (Scientific Procedures) Act 1986 U.K. Home Office regulations governing animal experimentation. Subcutaneous prostate cancer DU145-PSMA+ or DU145 xenografts were produced in SCID/beige mice (male, 7–12 wk old). Subcutaneous LNCaP prostate cancer xenografts were produced in athymic nude mice (Crl:NU(NCr)-Foxn1^nu, male, 6–7 wk old). SPECT/CT and biodistribution studies using ^99mTc and ^188Re radiotracers were performed once a tumor had reached an appropriate size (supplemental materials).
The biodistributions of [^99mTc]Tc-DP1-PSMAt and [^99mTc]Tc-DP2-PSMAt were assessed in male SCID/beige mice bearing DU145-PSMA+ xenograft tumors (Fig. 3). Each mouse was administered either [^99mTc]Tc-DP1-PSMAt or [^99mTc]Tc-DP2-PSMAt and euthanized at 2 h after injection (n = 5), followed by organ harvesting for ex vivo radioactivity counting.
(§5) FIGURE 3. (A) Biodistribution (2 h after injection) of SCID/beige mice bearing DU145-PSMA+ prostate cancer tumors, administered either ^99mTc or ^188Re radiotracers intravenously. To assess specificity of radiotracer uptake, additional groups of mice were also coadministered radiotracer and PMPA (Supplemental Tables 3 and 4). (B) Whole-body SPECT/CT maximum-intensity projections of SCID/beige mice bearing either DU145-PSMA+ tumors or DU145 tumors, administered either [^99mTc]Tc-DP1-PSMAt or [^99mTc]Tc-DP2-PSMAt, 2 h after injection. To inhibit uptake in DU145-PSMA+ tumors, animals were also coadministered PMPA.
To assess the specificity of each radiotracer, separate groups of animals, also bearing DU145-PSMA+ tumors, were coadministered either [^99mTc]Tc-DP1-PSMAt and PMPA or [^99mTc]Tc-DP2-PSMAt and PMPA to inhibit PSMA-mediated uptake of radiotracer (n = 5). […] For [^99mTc]Tc-DP1-PSMAt, coadministration decreased uptake to 0.91 ± 0.29 %ID/g in tumors (compared with administration of [^99mTc]Tc-DP1-PSMAt only: mean difference of 17.12 %ID/g, P = 4 × 10^−4). For [^99mTc]Tc-DP2-PSMAt, coadministration decreased uptake to 0.76 ± 0.45 %ID/g in tumors (compared with administration of [^99mTc]Tc-DP2-PSMAt only: mean difference of 28.62 %ID/g, P = 5 × 10^−4).

DU145-PSMA+ tumors = experiment: SPECT/CT imaging of mice bearing DU145-PSMA+ tumors; assay type: in vivo, SCID/beige mice; details: radiotracer only, 2 h and 24 h after injection
Experimental: as §4
as §5, with “PMPA. […]” for “PMPA.”

[4] = tested on: LNCaP prostate cancer cells, which natively express PSMA; experiment: Radiotracer uptake in LNCaP prostate cancer cells; assay type: cell-based; details: for cellular localization of radioactivity in LNCaP cells over time: 15, 30, 60 and 120 min, surface-bound vs internalized fraction; for uptake in LNCaP cells: 100 kBq radiotracer, 1 h incubation, percentage added radioactivity, mean ± SD, n = 3–4 biologic repeats in triplicate; for uptake in LNCaP cells / uptake in LNCaP cells with PMPA block: 37°C; for uptake in LNCaP cells with PMPA block: blocked with PMPA, 1 h
Experimental: as §1, §2, §3

PC3 cells = experiment: Radiotracer uptake in PC3 cells (non-PSMA-expressing); assay type: cell-based; details: 100 kBq, 1 h, 37°C; cells do not express PSMA
Experimental: as §1, §2, §3

| Compound | cellular localization of radioactivity in DU145-PSMA+ cells over time [1] | uptake in DU145-PSMA+ cells [1] [%AR] | uptake in DU145-PSMA+ cells with PMPA block [1] | uptake in parental DU145 cells [2] | effect of PMPA coadministration on kidney retention (in words) [3] | mean difference in spleen retention, radiotracer only vs with PMPA [3] [%ID/g] | mean difference in tumor uptake, radiotracer only vs with PMPA [3] [%ID/g] | tumor delineation in SPECT/CT scans (DU145-PSMA+ tumors) | cellular localization of radioactivity in LNCaP cells over time [4] | uptake in LNCaP cells [4] [%AR] | uptake in LNCaP cells with PMPA block [4] | uptake in PC3 cells (PC3 cells) |
| --- | --- | --- | --- | --- | --- | --- | --- | --- | --- | --- | --- | --- |
| O=C(O)CC[C@H](NC(=O)N[C@@H](CCCCNC(=O)CCOCCOCCOCCOCCNC(=O)/C(=C(\C(=O)O)P(c1ccccc1)c1ccccc1)P(c1ccccc1)c1ccccc1)C(=O)O)C(=O)O [[^99mTc]Tc-DP1-PSMAt] [metal not drawn] | most cell-associated radioactivity was found in the internalized cell fraction | 12.4 ± 2.8 | could be blocked with PMPA | negligible uptake | significantly decreased | 11.8 | 17.12 | tumors could be clearly delineated | most cell-associated radioactivity was found in the internalized cell fraction | 3.7 ± 1.2 | could also be blocked with PMPA | less than 0.3 %AR |
| Cc1ccc(P(/C(C(=O)O)=C(/C(=O)NCCOCCOCCOCCOCCC(=O)NCCCC[C@H](NC(=O)N[C@@H](CCC(=O)O)C(=O)O)C(=O)O)P(c2ccc(C)cc2)c2ccc(C)cc2)c2ccc(C)cc2)cc1 [[^99mTc]Tc-DP2-PSMAt] [metal not drawn] | most cell-associated radioactivity was found in the internalized cell fraction | 7.8 ± 1.3 | could be blocked with PMPA | negligible uptake | much less pronounced | 7.4 | 28.62 | tumors could be clearly delineated | most cell-associated radioactivity was found in the internalized cell fraction | 3.0 ± 0.8 | could also be blocked with PMPA | less than 0.3 %AR |

Source: PMC11218721, “Receptor-Targeted Peptide Conjugates Based on Diphosphines Enable Preparation of ^99mTc and ^188Re Theranostic Agents for Prostate Cancer” (Journal of Nuclear Medicine, 2024)
